Experimental data taken from ChEMBL document CHEMBL4616690, “Assembling Pharma Resources to Tackle Diseases of Underserved Populations” (ACS Med Chem Lett, 2020).

Assays:
[1] = tested on: Wolbachia; assay: Antibacterial activity against Wolbachia infected in insect cells; type: functional, organism-based
[2] = tested on: Wolbachia; assay: Potency index, ratio IC50 for TylA to IC50 for compound for antibacterial activity against Wolbachia infected in insect cells; type: functional
[3] = tested on: Wolbachia; assay: Potency index, ratio IC50 for doxycycline to IC50 for compound for antibacterial activity against Wolbachia infected in insect cells; type: functional

CC[C@H]1OC(=O)C[C@@H](O)[C@H](C)[C@@H](O[C@@H]2O[C@H](C)[C@@H](O[C@H]3C[C@@](C)(O)[C@@H](OCc4ccc(F)cc4)[C@H](C)O3)[C@H](N(C)C)[C@H]2O)[C@@H](CC=O)C[C@@H](C)C(=O)/C=C/C(C)=C/[C@@H]1CO[C@@H]1O[C@H](C)[C@@H](O)[C@@H](OC)[C@H]1OC [FLUBENTYLOSIN]
IC50 [1]: 0.02 nM | Ratio IC50 [2]: >1000 | Ratio IC50 [3]: >1000
